Experiments:
[1] = target: T1, VEGFR-2 (Homo sapiens, UniProt P35968); assay: Kinase inhibition assay (DELFIA), VEGF-2; format: biochemical; conditions: 40 μM ATP, kinase domain 20 nM
T1 construct: The kinase domains from FGFR-1, VEGFR-2, Lck, and PDGF were purified from baculoviral vectors expression systems; made in house
Procedure: DELFIA plates (EG&G Wallac, Gaithersburg, Md.) were coated overnight with Poly Glu Tyr (4:1) (Sigma, St. Louis, Mo.) at room temperature, washed (DELFIA wash reagent, EG&G Wallac), and spotted with 1 μL inhibitor dilution or DMSO carrier control per well. In some cases, kinase was autophosphorylated prior to analysis by incubating 45 minutes at 4° C. in the presence of 4 mM ATP and 25 mM MgCl2. A typical 100 μL kinase assay reaction contained 20 mM Tris (pH 7.5), 20 mM MgCl2, 50 mM NaCl, 5 mM DTT, and protease inhibitors (Mini EDTA-free protease inhibitor cocktail tablets, Boehringer Mannheim, Indianapolis, Ind.), 40 μM ATP, and an appropriate concentration of inhibitor. The reaction was allowed to continue for 30 minutes at room temperature. Plates were washed, blocked 30 minutes at room temperature (0.5% bovine serum albumin in DELFIA Assay Buffer, EG&G Wallac), and washed. One hundred microliter europium-conjugated antiphosphotyrosine antibody in DELFIA assay buffer was added to each well. Plates were incubated for 1 hour and decanted. […] Compounds were tested from 10 through 0.0001 μM. c-Src was (Upstate Biotechnology, Lake Placid, N.Y.) was used at 3 units per reaction. The kinase domains from FGFR-1, VEGFR-2, Lck, and PDGF were purified from baculoviral vectors expression systems and were used in the assays at 20 nM.

[2] = tested on: A90 human ovarian cells; assay: A90 tumor cell proliferation (Sulphorhodamine B); format: cell-based; conditions: 4 days with compound
Procedure: (§1) Human umbilical vein endothelial cells (HUVECs) (Clonetics, Palo Alto, Calif.) were seeded at 2000 cells per well in growth medium containing 2% serum (EGM, Clonetics) and allowed to attach overnight (37° C., 5% CO2, 100% humidity). C6 rat glioma cells (ATCC) were seeded at 600 cells per well and incubated in F10 medium (GIBCO, Gaithersburg, Md.) supplemented with 15% horse serum, 2.5% fetal bovine serum, and 1 mM glutamine. A90 human ovarian cells (Dr. Kent Crickard, SUNY/AB Medical School) were seeded at 600 cells per well in RPMI1640 (GIBCO) plus 10% fetal bovine serum. Plates were incubated overnight (37° C., 5% CO2, 100% humidity) to allow the cells to attach. Test compound dilutions were added to the appropriate wells, and the incubation was continued for 4 additional days. Monolayers were fixed in 10% trichloroacetic acid (30 minutes at 4° C.), washed with distilled water, and stained with Sulphorhodamine B (0.075% in 1% acetic acid) (Sigma). Plates were washed in 1% acetic acid, and the bound dye was solubilized in 100 μL unbuffered Tris base. Absorbance was measured at 540 nm using a reference filter wavelength of 630 nm. Inhibitor potency (IC50) versus cellular proliferation was determined, and endothelial cell selectivity was assessed by comparing the inhibition of HUVEC proliferation to A90 and C6 tumor cell proliferation (Table 3).

[3] = Metabolic stability, mice liver S9 fraction; format: in vitro ADME; conditions: mice liver S9, 5 μM, 37° C., 1.0 mM NADPH
Procedure: (§2) Compounds were individually incubated (5 μM in DMSO) with human and mice liver S9 fractions in 50 mM KHPO4 buffer at 37° C. in the presence of 1.0 mM NADPH and additional cofactors. At 0, 10, 20, and 40 minutes, 100 μL aliquots were removed and added to 300 μL of acetonitrile. Standard curves were prepared in a similar manner with each compound. Samples were analyzed for parent concentration by LC-MS/MS. The in vitro metabolic half-life was determined from the concentration-time plots using WinNonlin. These in vitro data represent the rate of oxidative, hydrolytic, and conjugative metabolism.

[4] = tested on: C6 rat glioma cells; assay: C6 tumor cell proliferation (Sulphorhodamine B); format: cell-based; conditions: 4 days with compound
Procedure: as §1

[5] = Metabolic stability, human liver S9 fraction; format: in vitro ADME; conditions: human liver S9, 5 μM, 37° C., 1.0 mM NADPH
Procedure: as §2

[6] = tested on: VEGFR-2 and FGFR-1 compared to PDGFR, Lck, and c-Src; assay: Kinase selectivity comparison across the kinase inhibition assays; format: biochemical; conditions: compared with reference Compounds A and B
Text: The invention compounds have been evaluated in the in vitro biological assays described in U.S. Pat. No. 5,733,914. […] Reference Compound A has a 2,6-dichloro phenyl group at the 6-position. Reference Compound B has a 3,5-dimethoxyphenyl group at the 6-position and a substituted phenylamino at the 2-position. The invention compound of Example 8 has the required 3,5-dimethoxyphenyl at the 6-position and the required (4-pyridyl)amino at the 2-position. The structures are shown in Table 1, along with their respective inhibitory activities against various tyrosine kinases, when evaluated in the models described in U.S. Pat. No. 5,733,914.
The preferred kinase selectivity profile of the compound in Example 8 is shared by the other representative compounds of the invention shown in Table 2. The inhibition activity of the compounds in Examples 8, 9, 10, 11, and 12 and Reference Compounds A and B were evaluated using the Dissociated Enhanced Lanthanide Fluoroimmuno Assay (DELFIA) (Frank Loganzo and Carolyn Hardy. A sensitive, time-resolved fluorometric assay for the detection of inhibitors of phosphotyrosine kinases. American Biotechnology Laboratory, December 1998). […] One hundred microliter DELFIA enhancement solution (EG&G Wallac) was added and time-resolved fluorescence of the reactions determined using a VICTOR2 1420 multilable counter (EG&G Wallac). […]

T1 sequence (P35968 834-1162 limits assumed, species assumed): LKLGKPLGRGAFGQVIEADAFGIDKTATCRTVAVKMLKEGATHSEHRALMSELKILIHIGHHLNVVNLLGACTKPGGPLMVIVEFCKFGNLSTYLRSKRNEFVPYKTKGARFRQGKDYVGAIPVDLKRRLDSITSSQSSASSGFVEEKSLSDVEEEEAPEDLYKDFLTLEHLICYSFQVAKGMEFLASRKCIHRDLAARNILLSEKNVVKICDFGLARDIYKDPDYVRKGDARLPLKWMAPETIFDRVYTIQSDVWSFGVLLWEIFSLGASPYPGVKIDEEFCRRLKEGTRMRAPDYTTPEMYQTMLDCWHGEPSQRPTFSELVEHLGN

6-(3,5-Dimethoxy-phenyl)-8-ethyl-2-(pyridin-4-ylamino)-8H-pyrido[2,3-d]pyrimidin-7-one [Example 8]
IC50 [1]: 0.02 µM | IC50 [2]: 2.92 µM | MS9 in vitro metabolic half-life [3]: >3.33 h | IC50 [4]: > 25 µM | HS9 in vitro metabolic half-life [5]: >3.33 h | selectivity for VEGFR-2 and FGFR-1 compared to PDGFR, Lck, and c-Src [6]: more selective

From US7022711B2, “2-(4-Pyridyl)amino-6-dialkoxyphenyl-pyrido[2,3-d]pyrimidin-7-ones” (Warner-Lambert Company, priority 2000, dated 2006)
